According to US20050026133A1, “Cryopreservation medium for primate embryo stem cells and cryopreservation method” (ASAHI TECHNO GLASS CORPORATION, priority 2002, published 2005):

What was measured:
[1] = tested on: Cynomolgus monkey ES cells; experiment: Alkaline phosphatase activity (ES cell marker) of post-thaw ES cells in culture, fluorometry with 4-methylumbelliferyl phosphate; format: cell-based; settings: for alkaline phosphatase activity of post-thaw ES cells (successful cryopreservation): 8 days of culture
Procedure: Cynomolgus monkey ES cells were subcultured for 33 passages and dissociated into cell suspension from three 90-mm Petri dishes, and the cell suspension was centrifuged at 1,000 rpm for 5 minutes. The supernatant was removed to obtain a cell precipitate. The cell precipitate was resuspended in 1 ml of a cryopreservation medium containing 20% (V/V) [=22% (W/V)] of DMSO, 40% (V/V) of a serum replacement containing albumin, insulin and transferrin (Knockout Serum Replacement; Invitrogen) [hereinafter referred to as serum replacement (A)] and 40% (V/V) of DMEM:Ham F12=1:1 medium [hereinafter referred to as medium (A)] supplemented with 3 g/l of glucose, 0.5 g/l of CaCl2 0.15 g/l of MgSO4. The cell suspension was transferred to a serum tube, refrigerated to −80° C. at a rate of about 1° C./min in Mr. Frosty is (Nalgen) and then stored in a liquid nitrogen container for about 6 days. The cells were thawed, plated in 60-mm Petri dishes in duplicate and cultured in the medium described in Suemori et al. (2001 Dev. Dyn. Oct; 222(2):273-9). ES cell proliferation was investigated by following the time course of the activity of alkaline phosphatase, which is a marker of ES cells. After 3, 5 and 7 days, the medium was removed from the dishes by aspiration, and the cells were washed with 1 ml of 30 mM Hepes buffer containing 0.1 mg/l of CaCl2 and 0.1 mg/l of MgSO4(7H2O) and treated with 1 ml of 0.2 mM 4-methylumbelliferyl phosphate solution in the same buffer in an incubator at 37° C. for 1 hour. 0.8 ml portions of the reaction mixture were transferred to a 24-well microplate and analyzed by fluorometry at Ex355/Em460. Fluorescence per 1 ml was calculated and plotted. As a control, the alkaline phosphatase activity of the same feeder cells as used during subcultures of ES cells was measured.

chicken lung cells = settings: DMSO or glycerin concentrations from 15 to 20%; cited from earlier work
[2] = tested on: embryonic stem cells and embryonic carcinoma cells; settings: DMSO concentration of above 1% (W/V); cited from earlier work
[3] = tested on: Cynomolgus monkey ES cells; experiment: Post-thaw ES cell colony formation, proliferation to subculturable stage, staining with Vector Red alkaline phosphatase substrate; format: cell-based
Procedure: After completion of the culture, the cells in each Petri dish were fixed with paraformaldehyde and ethanol and stained with Vector Red alkaline phosphatase substrate (Vector Labs).
After completion of the culture, the cells in each Petri dish were fixed with paraformaldehyde and ethanol and stained with vector Red alkaline phosphatase substrate (Vector Labs). […] Similar staining of the feeder cells gave no stained colonies (FIG. 11).
(§1) After 2, 4, 6 and 8 days, ES cell proliferation was assessed by alkaline phosphatase assay as described in Example 1. After 8 days of culture, the cells on each Petri dish was dissociated by tripsinization and counted. Colonies of 1 mm or larger formed on the Petri dishes for the respective concentrations were visually counted.

[4] = tested on: Cynomolgus monkey ES cells; experiment: Cell count per Petri dish of post-thaw ES cell culture after trypsinization; format: cell-based
Procedure: After 2, 4, 6 and 7 days, ES cell proliferation was assessed by alkaline phosphatase assay as described in Example 1. After 7 days of culture, the cells on each Petri dish was dissociated by tripsinization and counted.
as §1
After 2, 4, 6 and 8 days, ES cell proliferation was assessed by alkaline phosphatase assay as described in Example 1. After 8 days of culture, the cells on each Petri dish was dissociated by tripsinization and counted.
After 2, 4 and 6 days of culture, ES cell proliferation was assessed by alkaline phosphatase assay as described in Example 1. After 6 days of culture, the cells on each Petri dish was dissociated by tripsinization and counted.

[5] = tested on: Cynomolgus monkey ES cells; experiment: Differentiation potency of cryopreserved ES cells: teratoma formation after intraperitoneal injection into SCID mice; format: in vivo; settings: Example 3; cells cryopreserved in 20% (V/V) [=22% (W/V)] DMSO, 40% serum replacement (A), 40% medium (A); 10 passages after thawing; 5×10^6 cells i.p. in SCID mice, about 6 weeks
Procedure: Cynomolgus monkey ES cells subcultured for 35 passages were harvested from three 90-mm Petri dishes and treated by a method similar to that employed in Example 1 to give a cell precipitate. The cell precipitate was resuspended in 1 ml of a cryopreservation medium consisting of 20% (V/V) [=22% (W/V)] of DMSO, 40% (V/V) of serum replacement (A), 40% (V/V) of medium (A). The cell suspension was transferred to a serum tube, refrigerated to −80° C. at a rate of about 1° C./min in Mr. Frosty (Nalgen) and stored in a liquid nitrogen container for 5 day. The cells were thawed and continuously subcultured in duplicate in 35-mm Petri dishes in the medium described in Suemori et al. (2001 Dev. Dyn. Oct;222(2);273-9). Differentiation potency was assessed after 10 passages. The cells were dissociated from the Petri dishes, and 5×10^6 cells were suspended in 0.5 ml of a phosphate buffer and intraperitoneally injected into SCID mice. The mice were fed for about 6 weeks, and teratomas were isolated from the abdomen.

C[S+](C)[O-] [DMSO, dimethyl sulfoxide]
alkaline phosphatase activity of post-thaw ES cells versus feeder cells ([1]; Example 1, cryopreservation medium with 20% (V/V) [=22% (W/V)] DMSO, 40% serum replacement (A), 40% medium (A), stored about 6 days, culture 3, 5, 7 days): significantly higher alkaline phosphatase activity than the feeder cells
alkaline phosphatase activity of post-thaw ES cells versus feeder cells ([1]; Example 2, 20% (V/V) [=22% (W/V)] DMSO, 40% serum replacement (A), 40% medium (A), stored 1 day, culture 2, 4, 6, 7 days): significantly higher alkaline phosphatase activity than the feeder cells
alkaline phosphatase activity of post-thaw ES cells versus feeder cells ([1]; Example 2 comparative, 10% (V/V) DMSO, 45% serum replacement (A), 45% medium (A), after 7 days): slightly exceeded the feeder cells in alkaline phosphatase activity
time course of alkaline phosphatase activity of post-thaw ES cells ([1]; Example 4, DMSO 12, 15, 20 or 30% (V/V) [13.2, 16.5, 22, 33% (W/V)], equal serum replacement (A) and medium (A), 2, 4, 6, 7 days): time-dependent increase in alkaline phosphatase activity
rate of increase of alkaline phosphatase activity versus comparative experiment (10% (V/V) DMSO) ([1]; Example 6, 20% (V/V) DMSO, storage cell densities 1.0, 2.0, 4.0×10^7 cells/2 ml, stored 18 days): alkaline phosphatase activity increased faster at any cell densities than in the comparative experiment
alkaline phosphatase activity of post-thaw ES cells ([1]; Example 7, 20% (V/V) DMSO with 10, 40 or 80% (V/V) serum replacement (A) or fetal bovine serum, 2, 4, 6, 7 days): alkaline phosphatase activity increased
rate of increase of alkaline phosphatase activity versus comparative experiment (10% (V/V) DMSO) ([1]; Example 8, 20% (V/V) [=22% (W/V)] DMSO, 20% serum replacement (A), 60% medium (A), 2, 4, 6 days): increased significantly faster
viability of chicken lung cells (chicken lung cells): did not give high viabilities
time in culture at which cells begin to differentiate [2]: 4 days
time after thawing until the cells could be subcultured ([3]; Example 1, 20% (V/V) DMSO, 40% serum replacement (A), 40% medium (A)): 1 week
colonies stained with Vector Red alkaline phosphatase substrate ([3]; Example 1, 20% (V/V) DMSO, after completion of the culture): numerous successfully stained colonies
ES cell proliferation and differentiated colonies after post-thaw passage ([3]; Example 1, 20% (V/V) DMSO, three-fold dilution followed by 3 days of subculture): successful proliferation of ES cells was observed without formation of differentiated colonies
ES cell proliferation and differentiated colonies after 7 days of prolonged culture ([3]; Example 2, 20% (V/V) DMSO): successful proliferation of ES cells was observed without formation of differentiated colonies
time after thawing until the cultures were able to be subcultured ([3]; Example 2, 20% (V/V) DMSO): 5 days
colonies stained with Vector Red alkaline phosphatase substrate ([3]; Example 2, 20% (V/V) DMSO, 7 days after thawing): numerous successfully stained colonies
ES cell proliferation after 7 days of prolonged culture ([3]; Example 2 comparative, 10% (V/V) DMSO): proliferation was recognized to a certain degree, though far below that of the cells in the illustrative experiment
reaching the subculturable stage after thawing ([3]; Example 2 comparative, 10% (V/V) DMSO, 5 days): could not reach the stage at which they were able to be subcultured after 5 days
colonies stained with Vector Red alkaline phosphatase substrate ([3]; Example 2 comparative, 10% (V/V) DMSO, 7 days after thawing): a few successfully stained colonies were observed
cell count per Petri dish in the 7 day culture versus comparative experiment (10% or 50% (V/V) DMSO) ([4]; Example 4, DMSO 15% (V/V) [=16.5% (W/V)] and 20% (V/V) [=22% (W/V)]): remarkably greater
cell count per Petri dish after 8 days of culture versus comparative experiment (10% (V/V) DMSO) ([4]; Example 6, 20% (V/V) DMSO, storage cell densities 1.0, 2.0, 4.0×10^7 cells/2 ml): greater than that in the comparative experiment
cryopreservation success by cell count per Petri dish after 7 days of culture ([4]; Example 7, 20% (V/V) DMSO with 10, 40 or 80% (V/V) serum replacement (A) or fetal bovine serum): Successful cryopreservation was confirmed at any supplement concentrations
cell count per Petri dish after 6 days of culture, 20% (V/V) DMSO relative to 10% (V/V) DMSO ([4]; Example 8, 20% serum replacement (A), 2.2×10^7 cells/2 ml, stored 1 day): 6 times
tissues found in teratomas (retention of pluripotency) [5]: formation of nerves, muscles and cartilage

OCC(O)CO [glycerin]
alkaline phosphatase activity of post-thaw ES cells (successful cryopreservation) ([1]; Example 5, glycerin 10, 20 or 30% (V/V) [12.6, 25.2, 37.8% (W/V)], 20% serum replacement (A), balance medium (A)): increase in alkaline phosphatase activity after 8 days of culture
alkaline phosphatase activity of post-thaw ES cells (successful cryopreservation) ([1]; Example 5 comparative, glycerin 5% (V/V) [=6.3% (W/V)]): all the glycerin concentrations but 5% (V/V)
viability of chicken lung cells (chicken lung cells): did not give high viabilities
formation of ES cell colonies (1 mm or larger, visually counted) ([3]; Example 5, glycerin 10% (V/V) [=12.6% (W/V)] or above, 8 day culture): formation of ES cell colonies was confirmed
cell count per Petri dish in the 8 day culture ([4]; Example 5, glycerin 10% (V/V) [=12.6% (W/V)] and 20% (V/V) [=25.2% (W/V)]): remarkably great
